Results as given in the supplement of paper PMC10307832.

Key:
Assay in all cases: relative viability (nuclei count vs DMSO), 5 days (fraction); higher = more cells survive
[1] = compound: CN1C=C(C2=CC=CC=C21)/C=C\3/C4=C(C=CC=N4)NC3=O + COc1cc2c(Oc3ccc(NC(=O)C4(C(=O)Nc5ccc(F)cc5)CC4)cc3F)ccnc2cc1OCCCN1CCOCC1 [Foretinib] (partner 0.25 µM)
Method in brief: (§1)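 Lung cancer cell lines were pin-tool dosed in 1536-well plates on the day after seeding, with either a lone drug or a fixed anchor-drug dose plus five library-drug doses (not always all listed) in √10 steps. Nuclei were counted on 4× images after 5 days. Relative viability is the ratio of treated-well to vehicle-well nuclei counts, with each value a median of duplicate plates.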

Trametinib + Olaparib = compound: CC(=O)Nc1cccc(-n2c(=O)n(C3CC3)c(=O)c3c(Nc4ccc(I)cc4F)n(C)c(=O)c(C)c32)c1 [Trametinib] + O=C(c1cc(Cc2n[nH]c(=O)c3ccccc23)ccc1F)N1CCN(C(=O)C2CC2)CC1 [Olaparib] (partner 8 µM)
Method in brief: as §1

[2] = compound: CN1C=C(C2=CC=CC=C21)/C=C\3/C4=C(C=CC=N4)NC3=O + O=C(c1cc(Cc2n[nH]c(=O)c3ccccc23)ccc1F)N1CCN(C(=O)C2CC2)CC1 [Olaparib] (partner 8 µM)
Method in brief: as §1

Trametinib + Lapatinib = compound: CC(=O)Nc1cccc(-n2c(=O)n(C3CC3)c(=O)c3c(Nc4ccc(I)cc4F)n(C)c(=O)c(C)c32)c1 [Trametinib] + CS(=O)(=O)CCNCc1ccc(-c2ccc3ncnc(Nc4ccc(OCc5cccc(F)c5)c(Cl)c4)c3c2)o1 [Lapatinib] (partner 2 µM)
Method in brief: as §1

Row | Cell Line | relative viability ([1]; first compound 0.02 µM) | relative viability ([1]; first compound 0.06325 µM) | relative viability ([1]; first compound 0.2 µM) | relative viability ([1]; first compound 0.6325 µM) | relative viability ([1]; first compound 2 µM) | relative viability (Trametinib + Olaparib; first compound 0.0025 µM) | relative viability (Trametinib + Olaparib; first compound 0.007906 µM) | relative viability (Trametinib + Olaparib; first compound 0.025 µM) | relative viability (Trametinib + Olaparib; first compound 0.07906 µM) | relative viability (Trametinib + Olaparib; first compound 0.25 µM) | relative viability ([2]; first compound 0.02 µM) | relative viability ([2]; first compound 0.06325 µM) | relative viability ([2]; first compound 0.2 µM) | relative viability ([2]; first compound 0.6325 µM) | relative viability ([2]; first compound 2 µM) | relative viability (Trametinib + Lapatinib; first compound 0.0025 µM) | relative viability (Trametinib + Lapatinib; first compound 0.007906 µM) | relative viability (Trametinib + Lapatinib; first compound 0.025 µM) | relative viability (Trametinib + Lapatinib; first compound 0.07906 µM) | relative viability (Trametinib + Lapatinib; first compound 0.25 µM)
1 | NCI-H1793 | 0.877 | 0.815 | 0.682 | 0.601 | 0.659 | 0.529 | 0.461 | 0.361 | 0.29 | 0.211 | 0.678 | 0.813 | 0.72 | 0.817 | 0.63 | 0.478 | 0.531 | 0.397 | 0.395 | 0.352
2 | SK-MES-1 | 0.795 | 0.668 | 0.96 | 0.875 | 0.865 | 0.841 | 0.737 | 0.546 | 0.373 | 0.245 | 0.638 | 0.516 | 0.592 | 0.544 | 0.505 | 0.447 | 0.39 | 0.352 | 0.362 | 0.344
3 | NCI-H2087 | 1.05 | 1.11 | 1.3 | 1.04 | 1.04 | 0.463 | 0.379 | 0.249 | 0.123 | 0.18 | 0.513 | 0.56 | 0.62 | 0.511 | 0.653 | 1.1 | 0.665 | 0.496 | 0.254 | 0.18
4 | BEN | 0.66 | 0.742 |  | 0.483 | 0.484 | 1.15 | 1.04 | 0.995 | 1.01 | 1.02 | 1.01 | 0.91 | 0.885 | 1.14 | 1.24 | 0.681 | 0.651 |  | 0.506 | 0.593
5 | NCI-H3122 | 0.857 | 0.941 | 0.907 | 1.06 | 1.04 | 0.558 | 0.532 | 0.43 | 0.263 | 0.237 | 0.621 | 0.578 | 0.653 | 0.681 | 0.652 | 0.995 | 0.737 | 0.699 | 0.584 | 0.501
6 | NCI-H1299 | 1.09 | 1.1 | 1.16 | 1.07 | 1.02 | 1.04 | 1 | 0.942 | 0.832 | 0.587 | 0.96 | 0.97 | 1 | 1 | 0.952 | 1.01 | 0.994 | 0.901 | 0.87 | 0.555
7 | LCLC-97TM1 | 0.891 | 0.793 | 0.91 | 1.03 | 0.921 | 0.304 | 0.41 | 0.254 | 0.188 | 0.0956 |  | 0.348 | 0.309 | 0.314 | 0.289 | 0.666 | 0.944 | 0.666 | 0.3 | 0.138
8 | NCI-H2228 | 0.95 | 0.764 |  |  | 0.823 | 0.691 | 0.541 | 0.641 | 0.422 | 0.224 | 0.951 | 0.534 | 0.579 | 0.476 | 0.768 | 0.881 | 0.513 | 0.765 | 0.734 | 0.286
